Data set [1] can be described thus: Cytotoxicity against rat macrophages by MTS/PMS assay. The class given is cell-based. Conditions: macrophage; call rule not given here.
The target of a further data set is Dipeptidyl peptidase 4 (Homo sapiens, UniProt P27487). The experiment in a line: Inhibition of human recombinant DPP-4 using Gly-pro-p-nitroanilide as substrate assessed as formation of p-nitroaniline after 30 mins by colorimetric assay.
For data set [2], the system named is Rattus norvegicus. Description: Antidiabetic activity in high-fat-diet and low dose streptozotocin-induced diabetic Wistar rat assessed as blood glucose level at 10 mg/kg, po after 15 days (reference value: 515 mg/dl). The data set is classed as functional.
In data set [3] the test system is Rattus norvegicus. Description: Antidiabetic activity in high-fat-diet and low dose streptozotocin-induced diabetic Wistar rat assessed as blood glucose level at 50 mg/kg, po after 15 days (reference value: 515 mg/dl). The class given is functional.

Dipeptidyl peptidase 4, sequence (P27487 whole entry): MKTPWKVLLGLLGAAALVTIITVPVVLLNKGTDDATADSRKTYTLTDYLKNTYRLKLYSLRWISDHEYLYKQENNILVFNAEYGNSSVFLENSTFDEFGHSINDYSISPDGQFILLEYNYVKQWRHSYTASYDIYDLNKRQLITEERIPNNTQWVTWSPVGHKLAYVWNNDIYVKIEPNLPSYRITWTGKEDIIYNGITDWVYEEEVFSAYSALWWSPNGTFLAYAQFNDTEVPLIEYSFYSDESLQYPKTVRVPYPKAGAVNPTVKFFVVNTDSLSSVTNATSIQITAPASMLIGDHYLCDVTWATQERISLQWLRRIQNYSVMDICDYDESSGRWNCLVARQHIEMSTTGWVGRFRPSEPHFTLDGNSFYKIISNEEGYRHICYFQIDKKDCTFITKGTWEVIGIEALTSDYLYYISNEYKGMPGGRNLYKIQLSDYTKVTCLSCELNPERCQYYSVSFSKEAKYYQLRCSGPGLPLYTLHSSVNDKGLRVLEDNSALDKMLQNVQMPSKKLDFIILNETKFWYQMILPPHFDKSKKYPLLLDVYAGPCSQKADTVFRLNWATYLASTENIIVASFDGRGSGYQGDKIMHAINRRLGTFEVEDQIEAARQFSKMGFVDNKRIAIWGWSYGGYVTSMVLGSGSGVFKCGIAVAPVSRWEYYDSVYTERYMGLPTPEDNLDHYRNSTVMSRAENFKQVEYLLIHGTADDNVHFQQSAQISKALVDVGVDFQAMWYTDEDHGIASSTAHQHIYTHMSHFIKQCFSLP

Regarding `Cc1nc2c(cnn2-c2ccccc2)c(=O)n1-c1ncccn1`, the Activity result in data set [1] was “Non-toxic”. Consider `Cc1nc2c(cnn2-c2ccccc2)c(=O)n1-c1cccc(Cl)c1`, for which the IC50 entry at Dipeptidyl peptidase 4 is listed as “Not Active”. Also, the Activity entry in data set [1] was “Non-toxic”.

As for `Cc1nc2c(cnn2-c2ccccc2)c(=O)n1-c1ccc([N+](=O)[O-])cn1`, the IC50 entry at Dipeptidyl peptidase 4 is on record as “Not Active”. Moreover, the Activity entry in data set [1] is “Non-toxic”. Consider `O=C(Nc1ccc(Cl)cc1)c1cnn(-c2ccccc2)c1NC(=O)C(F)(F)F`, for which the IC50 result on Dipeptidyl peptidase 4 is listed as “Not Active”. In addition, the Activity entry in data set [1] was “Non-toxic”. For the molecule `Cc1nc2c(cnn2-c2ccccc2)c(=O)n1-c1ccccc1`, the IC50 entry at Dipeptidyl peptidase 4 is reported as “Not Active”. Also, the Activity result in data set [1] is “Non-toxic”. Turning to `Cc1nc2c(cnn2-c2ccccc2)c(=O)n1-c1ccc(F)cc1`, the IC50 result at Dipeptidyl peptidase 4 is listed as “Not Active”. Besides, the Activity result in data set [1] is “Non-toxic”. As for `N[C@@H](CC(=O)N1CCn2c(nnc2C(F)(F)F)C1)Cc1cc(F)c(F)cc1F` [SITAGLIPTIN], the Activity result was “Non-toxic” in data set [1] and 136.4 mg/dL in the data set on Rattus norvegicus [2]. Take `CC(=O)Nc1c(C(=O)Nc2ccccn2)cnn1-c1ccccc1`: the IC50 entry on Dipeptidyl peptidase 4 is listed as “Not Active”. For the same molecule, in data set [1], the Activity result was “Non-toxic”. For `CC(=O)Nc1c(C(=O)Nc2nc(-c3ccc(Cl)cc3)cs2)cnn1-c1ccccc1` the same measures were “Not Active” and “Non-toxic”. With `Cc1ccnc(-n2c(C)nc3c(cnn3-c3ccccc3)c2=O)c1`, the Activity with Rattus norvegicus [3] is 198.5 mg/dL; in data set [1] it was “Non-toxic”. As for `Cc1cc(C)c(-n2c(C)nc3c(cnn3-c3ccccc3)c2=O)c(C)c1`, the results for the Activity (with Rattus norvegicus [3]; in data set [1]) were 162.6 mg/dL and “Non-toxic”, respectively. In the case of `COc1ccc(-n2ncc3c(=O)n(-c4ccc(Br)cn4)c(C)nc32)cc1`, the IC50 entry on Dipeptidyl peptidase 4 is given as “Not Active”. Further, the Activity entry in data set [1] is “Non-toxic”.

For `CCOC(=O)c1sc(-n2c(C)nc3c(cnn3-c3ccccc3)c2=O)c(C(=O)OCC)c1C`, the IC50 result on Dipeptidyl peptidase 4 is on record as “Not Active”. Also, the Activity entry in data set [1] is “Non-toxic”. As for `CC(=O)Nc1c(C(=O)Nc2ccc(Br)cn2)cnn1-c1ccccc1`, the IC50 entry on Dipeptidyl peptidase 4 was “Not Active”. Also, the Activity result in data set [1] is listed as “Non-toxic”. Take `Cc1nc2c(cnn2-c2ccccc2)c(=O)n1-c1ccccn1`: the Activity result in data set [1] is on record as “Non-toxic”. In the case of `COc1ccc(-n2ncc3c(=O)n(-c4ccc(F)cc4)c(C)nc32)cc1`, the IC50 result at Dipeptidyl peptidase 4 is reported as “Not Active”. In data set [1], the Activity entry was “Non-toxic”. Regarding `COc1ccc(-n2ncc3c(=O)n(-c4nc(-c5ccc(Cl)cc5)cs4)c(C)nc32)cc1`, in data set [1], the Activity result is recorded as “Non-toxic”. `COc1ccc(-n2ncc3c(=O)n(-c4ccc([N+](=O)[O-])cn4)c(C)nc32)cc1`: on Dipeptidyl peptidase 4, the IC50 entry is recorded as “Not Active”. In data set [1], the Activity entry was “Non-toxic”. On to `Cc1nc2c(cnn2-c2ccccc2)c(=O)n1Cc1ccccc1`, for which the IC50 entry on Dipeptidyl peptidase 4 was “Not Active”. Also, the Activity result in data set [1] was “Non-toxic”. `Cc1nc2c(cnn2-c2ccccc2)c(=O)n1-c1ccc(F)cc1F`: the IC50 result on Dipeptidyl peptidase 4 was “Not Active”. Further, the Activity result in data set [1] is “Non-toxic”.

On to `COc1ccc(-n2ncc3c(=O)n(-c4cc(C)ccn4)c(C)nc32)cc1`, for which the Activity result in data set [1] is reported as “Non-toxic”. For `CCc1ccc(-n2c(C)nc3c(cnn3-c3ccccc3)c2=O)cc1`, at Dipeptidyl peptidase 4, the IC50 entry is recorded as “Not Active”. Moreover, the Activity result in data set [1] is “Non-toxic”.

Regarding `CCOC(=O)c1sc(-n2c(C)nc3c(cnn3-c3ccc(OC)cc3)c2=O)c(C(=O)OCC)c1C`, the IC50 entry on Dipeptidyl peptidase 4 is recorded as “Not Active”. Besides, the Activity entry in data set [1] is given as “Non-toxic”. `O=C(Nc1ccc(F)cc1)c1cnn(-c2ccccc2)c1NC(=O)C(F)(F)F`: the Activity in the data set with Rattus norvegicus [3] was 193.2 mg/dL; in data set [1], “Non-toxic”. For the molecule `COc1ccc(-n2ncc3c(=O)n(-c4ccccn4)c(C)nc32)cc1`, at Dipeptidyl peptidase 4, the IC50 entry was “Not Active”. Moreover, in data set [1], the Activity result is on record as “Non-toxic”. Consider `Cc1nc2c(cnn2-c2ccccc2)c(=O)n1-c1ccc(Br)cn1`, for which the Activity result in data set [1] was “Non-toxic”.

The values are drawn from ChEMBL document CHEMBL3616461, “Design, synthesis and biological evaluation of novel pyrazolo-pyrimidinones as DPP-IV inhibitors in diabetes” (Bioorg Med Chem Lett, 2015).
